Columns and labels:
[1] = system: Influenza A/Texas/1/77; assay: Lethal intranasal virus infection of mice, single dose of active substance, survival; format: in vivo, Mäuse
Method: (§1) Gruppen von 30, 40 oder 50 weiblichen MF-2f SPF-Mäusen mit einem Körpergewicht von 14-16 g bzw. 12-14 g bei den Versuchen mit Herpes simplex 1 Viren werden unter leichter Narkose mit einem Gemisch aus gleichen Teilen Aether, Äthanol und Chloroform mit letalen Dosen (ungefähr eine LD80-90; Anzahl der plaque forming units [PFU] siehe Tabelle 1) der untengenannten Viren-Stämme in Form von je 0,05 ml einer Suspension der Viren intranasal infiziert.
(§2) 10 oder 20 von diesen Mäusen werden zum unten angegebenen Zeitpunkt [Tage] bezogen auf den Tag der Infektion einmal (Einzeldosis) die in Tabelle 1 genannten Mengen der Wirksubstanz N-Acetyl- muramyl-L-alanyl-D-isoglutaminyl-L-alanin-2-(1.2-dipalmitoyl-sn-glycero-3-hydroxyphosphoryioxy)-äthylamid-natriumsalz (Verbindung I) in 0,05 bzw. 0,1 ml Phosphat-gepufferter-Salzlösung (PBS) bzw. in 0,2 ml einer 0,05 Gew.-%igen Lösung von Natriumcarboxymethylcellulose in doppelt destilliertem Wasser im Falle von intranasaler, intravenöser bzw. oraler Applikation auf die in Tabelle 1 genannte Art appliziert.
(§3) Die restlichen der obengenannten Mäuse, d. h. 20 oder 30, dienen zur Kontrolle, d. h. sie bleiben entweder unbehandelt oder erhalten ein Placebo.
(§4) Die intranasale Applikation von Verbindung I wird unter leichter Narkose mit einem Gemisch aus gleichen Teilen Diäthyläther, Aethanol und Chloroform durchgeführt.

[2] = system: Herpesvirus hominis 1/TUP; assay: Lethal intranasal virus infection of mice, single dose of active substance, protection; format: in vivo, Mäuse; conditions: 10 mg/kg, day -7, intranasal infection (Figur 3)
Method: as §1, §2, §3, §4

[3] = intranasal, 1 mg/kg, single dose on day '-' (number not given) before infection
[4] = oral, 10 mg, single dose on day +7 after infection

SMILES	Mäuse die Infektion überleben [1, 3]	Mäuse die Infektion überleben [1, 4]	Schutzwirkung [1, 3]	outcome of infection (death of mice) [1, 4]	Schutzwirkung [2]
CCCCCCCCCCCCCCCC(=O)OC[C@H](COP(=O)(O)OCCNC(=O)[C@H](C)NC(=O)CC[C@@H](NC(=O)[C@H](C)NC(=O)[C@@H](C)O[C@H]1[C@H](O)[C@@H](CO)OC(O)[C@@H]1NC(C)=O)C(N)=O)OC(=O)CCCCCCCCCCCCCCC (stereo partly drawn) [Verbindung I, N-Acetyl-muramyl-L-alanyl-D-isoglutaminyl-L-alanin-2-(1,2-dipalmitoyl-sn-glycero-3-hydroxyphosphoryloxy)-äthylamid]	90%	65%	–	–	–
CCCCOC(=O)[C@@H](CCC(N)=O)NC(=O)[C@H](C)NC(=O)[C@@H](C)O[C@H]1[C@H](O)[C@@H](CO)OC(O)[C@@H]1NC(C)=O (stereo partly drawn) [Verbindung II, N-Acetyl-muramyl-L-alanyl-D-glutamin-n-butylester]	–	–	keinerlei Schutzwirkung	sämtliche Mäuse an der Infektion mit Influenza A/Texas/1/77 sterben	Keinerlei Schutzwirkung
